Tests used:
[1] = test system: senescent cancer (A549) cells; experiment: survival of senescent A549 cancer cells treated with medium supernatant of compound-killed cancer cells (Example 14, Table 70); type: cell-based, human
Procedure: In the same way as Examples 12 and 13, senescence of cancer (A549) cells was induced by treatment with doxorubicin or the control group (DMSO), and the cells were cultured. […] In the same manner as in Example 13, the medium supernatants comprising secreted fluid from normally proliferating and senescent cancer cells was obtained. Normally proliferating and senescent-induced cancer cells were treated with the medium supernatants.
Furthermore, other test compounds were used in the same manner in Example 12 above at high concentrations of 30 μM, 90 μM, and 270 μM, respectively, and the cultured medium supernatant comprising secreted fluid from aged cancer cells that were killed were obtained. As a result of measuring the degree of death of aged cancer cells, it was confirmed that aged cancer cells can be effectively removed, as shown in Example 12 and Table 65.

[2] = open field test in obese mice given senescent cells killed by test compounds (Example 16, Table 72); type: in vivo, C57BL6J mice; conditions: obese mice administered senescent cells whose death was induced by the test compound
Method in brief: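 Doxorubicin-senesced (250 nM, 24 h, then 21 days) mouse preadipocytes killed by test compound were injected subcutaneously (5×10^5 cells) into 8-week-old female C57BL6J mice, followed by intraperitoneal senescent preadipocytes on days 7 and 10 and 8 weeks of high-fat diet. Open-field activity expressed as % of mice without killed-cell administration.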

[3] = open field test in obesity-aged mice (Example 9-4); type: in vivo, C57BL6J mice; conditions: LX-112 70 mg/kg oral daily 21 days, DIO without LX = 100%
Procedure: 15-week-old male C57BL6J mice (purchased from Jackson Laboratories), whose obesity was induced by a high-fat diet, were adapted to the experimental environment for one week, and then the mice were randomized into an experimental group and a control group. LX-112 was mixed with 0.5% CMC-Na solution (purchased from Sigma) and administered orally at a concentration of 70 mg/kg daily for 21 days. The control group was administered only the solution in the same volume. After drug administration was completed, the method described in each Example below was performed. Mice were sacrificed and the weight of adipose tissue in each area was measured.
Accordingly, the open field test was performed to analyze lethargy due to anxiety and depression caused by obesity in mice using the same method as Example 7-7. […] Table 58 calculates the amounts of activity after aging induced by obesity as 100% and compares it with the amount of activity evaluation after treatment with LX-112.

[4] = fatigue/weakness tests and body weight in doxorubicin-aged mice (Example 8-7); type: in vivo, C57BL6J mice
Procedure: After adapting 8-week-old male C57BL6J mice (purchased from KRIBB Laboratory Animal Resource Center) to the experimental environment for 1 week, doxorubicin, an anticancer drug, was administered intraperitoneally at a concentration of 10 mg/kg, and mice that were induced to age for more than 10 days were assigned to an experimental group and a control group. LX-112 was mixed with 0.5% CMC-Na solution (purchased from Sigma) and administered orally at a concentration of 70 mg/kg daily for 21 days. The control group was administered only the solution in the same volume. After drug administration was completed, the method described in each Example below was performed.
In the same way as Example 7-7, in order to analyze fatigue and weakness that occur as a side effect due to treatment with anticancer drugs in mice, activity evaluation (open field test), endurance evaluation (wire hanging test), and muscle strength and grip strength test (grip strength test) were performed. […] In Table 47, the amount of each evaluation after aging was induced by treatment with the anticancer drug was calculated as 100% and compared it with the amount of each evaluation after treatment with LX-112.

SAOS-2 = experiment: senescent SAOS-2 tumor size in mice (Example 2-3); type: in vivo, BALB/c nude mice; conditions: doxorubicin 10 mg/kg i.p.; after 10 days LX-112 100 mg/kg oral daily 21 days or repeated doxorubicin
Procedure: After 7-week-old male BALB/c nude mice (purchased from KRIBB Laboratory Animal Resource Center) were adapted to the experimental environment for one week, the mice were randomized into an experimental group and a control group. SAOS-2 (10^6 cells), a human osteosarcoma cancer cell line cultured in the same manner as Example 2-1, was mixed with PBS (purchased from Welgene) and then anesthetized using 2% isoflurane (purchased from Sigma). It was administered subcutaneously to mice. When the size of the tumor reached about […], doxorubicin was mixed at a concentration of 10 mg/kg in a 1:1 solution of distilled water and PBS (pH 7.2) and administered intraperitoneally to induce tumor aging. After 10 days, LX-112 mixed with 0.5% CMC-Na solution (purchased from Sigma) at a concentration of 100 mg/kg was orally administered daily for 21 days, and the size of the tumor was measured. The control group was repeatedly administered a solution mixed with doxorubicin, and then the size of the tumor was measured.

| Structure (SMILES) | Survival (%) ([1]; supernatant from No Cells) | Survival (%) ([1]; supernatant from death-induced proliferating cells (LX-405 30 μM)) | Survival (%) ([1]; supernatant from death-induced senescent cells (LX-405 30 μM)) | Open Field Test Time in Center (%) [2] | Open Field Test Time in Center (%) [3] | Open Field Test Time in Center (%) ([4]; Table 47, doxorubicin-aged mice, LX-112 70 mg/kg oral daily 21 days, DOX without LX = 100) | Mean Body Weight (g) ([4]; mice, doxorubicin 10 mg/kg i.p. without or with LX-112 70 mg/kg oral daily 21 days) | Tumor Diameter (mm) (SAOS-2) |
| --- | --- | --- | --- | --- | --- | --- | --- | --- |
| COC(=O)c1ccc([C@H]2c3[nH]c4ccccc4c3C[C@H](C(=O)OC)N2C(=O)CCl)cc1 [LX-405] | 98.2 (±2.8) % | 78.8 (±7.7) % | 72.5 (±5.7) % | 174.2 (±12.5) % |  |  |  |  |
| O=c1c2ccccc2[se]n1CCn1[se]c2ccccc2c1=O [LX-112, 1,2-[bis(1,2-benzisoselenazolone-3(2H)-ketone)]ethane] |  |  |  |  | 137.5 (±15) % | 129 (±15) % | 22.8 (±3.1) g | 6.2 (±4.8) mm |

Reference: patent US20250108036A1, “COMPOSITIONS FOR REMOVING SENESCENT CELLS AND USES THEREOF” (LIFECEUTIX CO., LTD., priority 2021, published 2025)
